{"source": "patent US8207121B2", "about": "“Sensitization to another anticancer therapy and/or amelioration of a side effect of another anticancer therapy by treatment with a GST-activated anticancer compound” (Telik, Inc., priority 2004, dated 2012)", "key": {"GST M1a-1a": {"molecular_target": "T1, GST M1a-1a (Homo sapiens, UniProt P09488)", "T1 sequence (P09488 1-218)": "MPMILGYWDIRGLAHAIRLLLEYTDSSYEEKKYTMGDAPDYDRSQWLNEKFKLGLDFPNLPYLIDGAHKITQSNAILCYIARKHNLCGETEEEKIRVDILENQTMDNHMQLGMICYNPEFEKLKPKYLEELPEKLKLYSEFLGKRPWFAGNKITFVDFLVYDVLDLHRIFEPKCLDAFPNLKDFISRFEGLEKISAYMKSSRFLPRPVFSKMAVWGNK", "settings": "cited from earlier work"}, "GST P1-1": {"molecular_target": "GST P1-1 (Homo sapiens, UniProt P09211)", "sequence (P09211 2-210 limits assumed)": "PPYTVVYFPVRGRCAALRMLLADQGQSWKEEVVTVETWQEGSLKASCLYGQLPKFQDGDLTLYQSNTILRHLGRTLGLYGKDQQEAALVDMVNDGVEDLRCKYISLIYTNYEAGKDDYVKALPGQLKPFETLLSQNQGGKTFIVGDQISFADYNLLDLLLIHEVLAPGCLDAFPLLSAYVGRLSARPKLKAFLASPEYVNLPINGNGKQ", "settings": "cited from earlier work"}, "GST A1-1": {"molecular_target": "T2, GST A1-1 (Homo sapiens, UniProt P08263)", "T2 sequence (P08263 1-222)": "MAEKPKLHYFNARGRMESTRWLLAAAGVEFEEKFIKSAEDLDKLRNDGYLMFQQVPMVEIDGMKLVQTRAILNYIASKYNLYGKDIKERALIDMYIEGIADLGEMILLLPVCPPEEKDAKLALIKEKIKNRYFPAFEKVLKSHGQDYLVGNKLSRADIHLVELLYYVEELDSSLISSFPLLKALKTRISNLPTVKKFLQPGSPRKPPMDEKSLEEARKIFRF", "settings": "cited from earlier work"}, "M7609 xenografts": {"test_system": "M7609 xenografts", "settings": "xenografts engineered to have high, medium, and low GST P1-1; cited from earlier work"}, "[1]": {"assay": "Clinical observation: side effects of carboplatin therapy in ovarian cancer patients", "type": "in vivo, human", "source_text": "Ovarian cancer patients treated with carboplatin-containing regimens underwent repeated cycles of alopecia corresponding to the administration of the carboplatin."}, "[2]": {"test_system": "ovarian, breast, non-small cell lung, and colorectal cancers", "settings": "cited from earlier work"}, "[3]": {"test_system": "cell culture and tumor biopsies", "settings": "cited from earlier work"}, "OVCAR-3 cells": {"test_system": "OVCAR-3 cells", "assay": "Cytotoxicity assay (CellTiter-Glo), OVCAR-3", "type": "cell-based", "settings": "Homo sapiens", "experimental": "Cancer cell line. The human cancer cell line OVCAR-3 (ovarian adenocarcinoma) was obtained from the National Cancer Institute, Bethesda, Md., U.S.A.\n(§1) A paclitaxel-resistant derivative cell line OVCAR-PR was developed from the human ovarian cancer cell line OVCAR-3 by growing OVCAR-3 cells in gradually increasing concentrations (up to 5 nM) of paclitaxel. A canfosfamide-modified derivative cell line OVCAR-TLK was developed by growing OVCAR-3 cells in gradually increasing concentrations (up to 6.5 μM) of canfosfamide. To maintain the phenotypes of the cell lines, the cells were treated with the compounds at weekly intervals. Cells were grown in compound-free media for 24 hours before any experiments.\n(§2) Cytotoxicity assay. Log-phase cells were seeded in 96-well plates and incubated with the diluted compound or solvent for 2-3 doubling times. The extent of cell growth was quantitated using the CellTiter-Glo assay (Promega Corporation, Madison, Wis., U.S.A.), used in accordance with the assay kit directions. The amount of ATP in the lysate, which corresponds to the number of viable cells, was quantitated using a luminometer. All assays were conducted in triplicate wells, with solvent control. The extent of cell growth was expressed as a percentage of the signal from the solvent control wells. The mean of the triplicate wells was computed and IC50 determined using PrismGraph."}, "OVCAR-TLK cells": {"test_system": "OVCAR-TLK cells", "assay": "Cytotoxicity assay (CellTiter-Glo), canfosfamide-modified OVCAR-TLK", "type": "cell-based, human", "experimental": "as §1, §2\nCell doubling time. 1.5×10^4 cells were seeded in a 25-mL flask. The cells were grown for four days and the number of viable cells was determined by Trypan Blue staining and manual counting using a hemocytometer. The assay was conducted in triplicate at each time point. The times for two cell doublings for OVCAR-3 and OVCAR-TLK cells were approximately 3.5 and 5.5 days, respectively."}, "[4]": {"test_system": "M6709 human colon carcinoma cell line selected for resistance to doxorubicin", "settings": "line overexpresses GST P1-1; cited from earlier work"}, "[5]": {"test_system": "MCF-7 human breast carcinoma cell line selected for resistance to cyclophosphamide", "settings": "line overexpresses GST P1-1; cited from earlier work"}, "OVCAR-PR cells": {"test_system": "OVCAR-PR cells", "assay": "Cytotoxicity assay (CellTiter-Glo), paclitaxel-resistant OVCAR-PR", "type": "cell-based, human", "settings": "for IC50: Homo sapiens; for increase in resistance: IC50 in OVCAR-PR cells versus OVCAR-3 cells", "experimental": "as §1, §2"}}, "note": "Counter-ions that a name gives are not always drawn. Like-named read-outs stand apart in the source and are kept apart here.", "data": [{"smiles": "N[C@@H](CCC(=O)N[C@@H](CS(=O)(=O)CCOP(=O)(N(CCCl)CCCl)N(CCCl)CCCl)C(=O)NCC(=O)O)C(=O)O", "note": "[TLK231, L-γ-glutamyl-3-[[2-[[bis[bis(2-chloroethyl)amino]phosphinyl]oxy]ethyl]sulfonyl]-L-alanyl-glycine]", "values": [{"measurement": "activation by GST isoenzyme", "setting": "GST M1a-1a", "value": "activated"}]}, {"smiles": "N[C@@H](CCC(=O)N[C@@H](Cc1cccc(S(=O)(=O)CCOP(=O)(N(CCCl)CCCl)N(CCCl)CCCl)c1)C(=O)NCC(=O)O)C(=O)O", "note": "[TLK(296, L-γ-glutamyl-3-[[2-[[bis[bis(2-chloroethyl)amino]phosphinyl]oxy]ethyl]sulfonyl]-L-phenylalanyl-glycine]", "values": [{"measurement": "activation by GST isoenzyme", "setting": "GST P1-1", "value": "activated"}]}, {"smiles": "C[C@@](NC(=O)[C@H](CS(=O)(=O)CCOP(=O)(N(CCCl)CCCl)N(CCCl)CCCl)NC(=O)CC[C@H](N)C(=O)O)(C(=O)O)c1ccccc1", "note": "[TLK(303, L-γ-glutamyl-3-[[2-[[bis[bis(2-chloroethyl)-amino]phosphinyl]oxy]ethyl]sulfonyl]-L-alanyl-2-phenyl-(2S)-alanine]", "values": [{"measurement": "activation by GST isoenzyme", "setting": "GST A1-1", "value": "activated"}]}, {"smiles": "N[C@@H](CCC(=O)N[C@@H](CS(=O)(=O)CCOP(=O)(N(CCCl)CCCl)N(CCCl)CCCl)C(=O)N[C@@H](C(=O)O)c1ccccc1)C(=O)O", "note": "[canfosfamide hydrochloride]", "values": [{"measurement": "potency versus level of GST P1-1", "setting": "M7609 xenografts", "value": "positively correlated with the level of GST P1-1"}, {"measurement": "recurrence of alopecia with carboplatin treatment", "setting": "[1]; carboplatin AUC 5 or 6 mg/mL·min with canfosfamide hydrochloride 500, 750 and 960 mg/m^2", "value": "did not experience the same recurrence of alopecia"}, {"measurement": "hematologic and neurologic side effects of carboplatin", "setting": "[1]; carboplatin in combination with canfosfamide hydrochloride", "value": "similarly ameliorated"}, {"measurement": "hematological toxicity in patients", "setting": "[2]; treated patients", "value": "very low incidence of clinically significant hematological toxicity"}]}, {"smiles": "N[C@@H](CCC(=O)N[C@@H](CS(=O)(=O)CCOP(=O)(N(CCCl)CCCl)N(CCCl)CCCl)C(=O)N[C@@H](C(=O)O)c1ccccc1)C(=O)O", "note": "[canfosfamide, L-γ-glutamyl-3-[[2-[[bis[bis(2-choroethyl)-amino]phosphinyl]oxy]ethyl]sulfonyl]-L-alanyl-2-phenyl-(2R)-glycine]", "values": [{"measurement": "cross-resistance to platinum, paclitaxel, doxorubicin and gemcitabine", "setting": "[3]", "value": "non-cross-resistant"}, {"measurement": "IC50", "setting": "OVCAR-3 cells; OVCAR-3", "value": 1300, "unit": "nM"}, {"measurement": "sensitivity to canfosfamide, OVCAR-3 versus OVCAR-TLK", "setting": "OVCAR-TLK cells; treated for approximately two doubling times", "value": "approximately equally sensitive"}, {"measurement": "activation by GST isoenzyme", "setting": "GST P1-1", "value": "activated"}, {"measurement": "potency versus parental cell line", "setting": "[4]", "value": "more potent"}, {"measurement": "potency versus parental cell line", "setting": "[5]", "value": "more potent"}, {"measurement": "activation by GST isoenzyme", "setting": "GST A1-1", "value": "activated"}, {"measurement": "clinical activity", "setting": "[2]; colorectal and breast cancer", "value": "single agent antitumor activity"}, {"measurement": "clinical activity", "setting": "[2]; patients with non-small cell lung cancer and ovarian cancer", "value": "significant single agent antitumor activity and improvement in survival"}, {"measurement": "IC50", "setting": "OVCAR-PR cells", "value": 1600, "unit": "nM"}, {"measurement": "increase in resistance", "setting": "OVCAR-PR cells", "value": 1.2, "unit": "fold"}]}, {"smiles": "CC(=O)O[C@H]1C(=O)[C@@]2(C)[C@H]([C@H](OC(=O)c3ccccc3)[C@]3(O)C[C@H](OC(=O)[C@H](O)[C@@H](NC(=O)c4ccccc4)c4ccccc4)C(C)=C1C3(C)C)[C@]1(OC(C)=O)CO[C@@H]1C[C@@H]2O", "note": "[paclitaxel]", "values": [{"measurement": "IC50", "setting": "OVCAR-3 cells; OVCAR-3 cells, read-out: IC50", "value": 1.3, "unit": "nM"}, {"measurement": "IC50s for paclitaxel, OVCAR-3 versus OVCAR-TLK", "setting": "OVCAR-TLK cells; equal treatment times", "value": "approximately the same"}, {"measurement": "IC50 for paclitaxel lower in OVCAR-TLK than in OVCAR-3 cells", "setting": "OVCAR-TLK cells; treatment times adjusted for doubling times (approximately two doubling times)", "value": "about 2 fold"}, {"measurement": "IC50", "setting": "OVCAR-PR cells; OVCAR-PR cells, read-out: IC50", "value": 49, "unit": "nM"}, {"measurement": "increase in resistance", "setting": "OVCAR-PR cells", "value": "more than 35 fold"}, {"measurement": "decrease of IC50 for paclitaxel after canfosfamide pretreatment", "setting": "OVCAR-PR cells; OVCAR-PR cells first treated overnight with 4 μM canfosfamide", "value": "approximately 3 fold"}]}]}
